Reference: US7157083B2, “Compositions and methods for treating retroviral infections” (priority 1998, dated 2007)

System: clinical isolate ROJO (low passage HIV-1) in human PBMCs
Assay: Study 1 PBMC assay: reverse transcriptase activity after ROJO infection (Treatments A, B, C)
Format: cell-based
Method: Percent virus control (% VC) in the following tables is the mean RT activity (cpm) as a percentage of a virus control. Percent cell control (% CC) is the mean XTT absorbance as a percentage of a cell control.
Peripheral blood monocular cells (PBMCs) are obtained from normal hepatitis and HIV-1 negative donors by ficoll hypaque gradient separation. Briefly, anti-coagulated blood is diluted 1:1 with Dulbecco's phosphate buffered saline without Ca^++ and Mg^++ (PBS) and layered over 14 mL of Lymphocyte separation media in a 50 ml centrifuge tube. Tubes are then centrifuged for 30 minutes at 600× g. Banded PBLs are gently aspirated from the resulting interface and subsequently washed 2× with PBS by low speed centrifugation. The mononuclear cells are counted, viability determined by Trypan Blue dye exclusion and resuspended in RPM1640 medium supplemented with 15% FBS (heat inactivated), 2 mM L-glutamine, 100 U/mL penicillin, 100 μg/mL streptomycin, and 10 μg/mL gentamycin with 2 μg/mL phytohemagluttin (PHA) at 1×10^6 cells/mL. The cells are cultured for 48 to 72 h at 37° C., 5% CO2 Following incubation, cells are collected by centrifugation, washed and resuspended in RPMI 1640 supplemented with 15% FBS (heat inactivated), 2 Mm L-glutamine, 100 U/mL penicillin, 100 μg/mL streptomycin, and 10 μg/mL gentamycin with 20 U/mL recombinant IL-2 (R & D Systems, Minneapolis, Minn.). IL-2 is included in the culture medium to maintain the cell division initiated by the PHA mitogenic stimulation. The cultures are then maintained until use by ½ culture volume change with fresh IL-2 containing medium every 3 days.
Human peripheral blood mononuclear cells from a minimum of 2 donors, that have been blasted with PHA and IL-2, are counted, viability determined by Trypan Blue dye exclusion and mixed in equal ratios. Pooled donors are used to minimize the variability observed between individual donors which results from quantitative and qualitative differences in HIV infection and overall response to the PHA and IL-2 of primary lymphocyte populations. The cells are resuspended at 1×10^6 cells/mL in RPMI 1640 without phenol red supplemented with 15% Fetal Bovine Serum (heat inactivated), 2 mM L-glutamine, 100 U/mL penicillin, 100 μg/mL streptomycin, 10 μg/mL gentamycin and IL-2 (20 U/mL, R&D Systems, Minneapolis, Minn.). Fifty microliters of cells are then distributed to the inner 60 wells of a 96 well round bottom Microtiter culture plate in a standard format developed by the Infectious Disease Research department of Southern Research Institute. Each plate contains cell control wells (cells only), virus control wells (cell plus virus), and experimental wells (drug plus cells plus virus).
Using an in-house computer program, IC50 (50% inhibition of virus replication), TC50 (50% reduction in cell viability) and a therapeutic index (TI, […]) were determined. AZT was used as a relevant positive control compound for the individual assays.
This study compares the ability of hyaluronidase to AZT to lower viral replication as measured by reverse transcriptase levels. RT was measured on days 7, 14, and 21. Three different treatment regimens were used in the comparative study (Treatments A, B and C).
Treatment A. Normal mixed PHA blasted human PBMCs (5×10e4/well) were pretreated with drug every 48 hours for 3 doses. On day 6 of pretreatment, cells were infected with clinical isolate ROJO. 48 hours post infection, treatment with drugs continued for an additional 3 treatments. Samples for assay were collected on D7 (day 7), 14, 21, post infection, frozen and later analyzed for reverse transcriptase.
Treatment B. Normal mixed PHA blasted human PBMCs (as above) were plated in 96 wells and allowed to incubate for 48 hours (cells were set at same time as treatment A from same pool). Drug pretreatment started on day 2 and was repeated on day 4. On day 6, cell were infected as in treatment A, with concurrent addition of drug for a total of 3 treatments. […]

Cc1cn([C@H]2C[C@H](N=[N+]=[N-])[C@@H](CO)O2)c(=O)[nH]c1=O [AZT, reference compound]
RT activity % VC (Treatment A, 0.00017 μM, Day 7): 47.3%
RT activity % VC (Treatment A, 0.00017 μM, Day 14): 115.4%
RT activity % VC (Treatment A, 0.00017 μM, Day 21): 164.5%
RT activity % VC (Treatment A, 0.00054 μM, Day 7): 19.3%
RT activity % VC (Treatment A, 0.00054 μM, Day 14): 99.8%
RT activity % VC (Treatment A, 0.00054 μM, Day 21): 141.5%
RT activity % VC (Treatment A, 0.00168 μM, Day 7): 25.1%
RT activity % VC (Treatment A, 0.00168 μM, Day 14): 74.2%
RT activity % VC (Treatment A, 0.00168 μM, Day 21): 135.6%
RT activity % VC (Treatment A, 0.00524 μM, Day 7): 10.2%
RT activity % VC (Treatment A, 0.00524 μM, Day 14): 78.3%
RT activity % VC (Treatment A, 0.00524 μM, Day 21): 155.1%
RT activity % VC (Treatment A, 0.01638 μM, Day 7): 11.6%
RT activity % VC (Treatment A, 0.01638 μM, Day 14): 57.9%
RT activity % VC (Treatment A, 0.01638 μM, Day 21): 129.5%
RT activity % VC (Treatment A, 0.0512 μM, Day 7): 3.0%
RT activity % VC (Treatment A, 0.0512 μM, Day 14): 40.7%
RT activity % VC (Treatment A, 0.0512 μM, Day 21): 134.8%
RT activity % VC (Treatment A, 0.16 μM, Day 7): 2.7%
RT activity % VC (Treatment A, 0.16 μM, Day 14): 40.3%
RT activity % VC (Treatment A, 0.16 μM, Day 21): 126.3%
RT activity % VC (Treatment A, 0.5 μM, Day 7): 2.3%
RT activity % VC (Treatment A, 0.5 μM, Day 14): 21.4%
RT activity % VC (Treatment A, 0.5 μM, Day 21): 78.3%
RT activity % VC (Treatment A, 5.5E-05 μM, Day 7): 77.0%
RT activity % VC (Treatment A, 5.5E-05 μM, Day 14): 100.4%
RT activity % VC (Treatment A, 5.5E-05 μM, Day 21): 159.7%
RT activity % VC (Treatment B, 0.00017 μM, Day 7): 43.6%
RT activity % VC (Treatment B, 0.00017 μM, Day 14): 80.8%
RT activity % VC (Treatment B, 0.00017 μM, Day 21): 129.8%
RT activity % VC (Treatment B, 0.00054 μM, Day 7): 34.2%
RT activity % VC (Treatment B, 0.00054 μM, Day 14): 70.1%
RT activity % VC (Treatment B, 0.00054 μM, Day 21): 111.8%
RT activity % VC (Treatment B, 0.00168 μM, Day 7): 10.7%
RT activity % VC (Treatment B, 0.00168 μM, Day 14): 57.5%
RT activity % VC (Treatment B, 0.00168 μM, Day 21): 153.5%
RT activity % VC (Treatment B, 0.00524 μM, Day 7): 9.3%
RT activity % VC (Treatment B, 0.00524 μM, Day 14): 51.0%
RT activity % VC (Treatment B, 0.00524 μM, Day 21): 109.0%
RT activity % VC (Treatment B, 0.01638 μM, Day 7): 9.6%
RT activity % VC (Treatment B, 0.01638 μM, Day 14): 58.0%
RT activity % VC (Treatment B, 0.01638 μM, Day 21): 133.9%
RT activity % VC (Treatment B, 0.0512 μM, Day 7): 5.4%
RT activity % VC (Treatment B, 0.0512 μM, Day 14): 28.5%
RT activity % VC (Treatment B, 0.0512 μM, Day 21): 158.0%
RT activity % VC (Treatment B, 0.16 μM, Day 7): 3.9%
RT activity % VC (Treatment B, 0.16 μM, Day 14): 25.7%
RT activity % VC (Treatment B, 0.16 μM, Day 21): 93.8%
RT activity % VC (Treatment B, 0.5 μM, Day 7): 5.4%
RT activity % VC (Treatment B, 0.5 μM, Day 14): 9.5%
RT activity % VC (Treatment B, 0.5 μM, Day 21): 87.5%
RT activity % VC (Treatment B, 5.5E-05 μM, Day 7): 90.9%
RT activity % VC (Treatment B, 5.5E-05 μM, Day 14): 97.0%
RT activity % VC (Treatment B, 5.5E-05 μM, Day 21): 163.3%
RT activity % VC (Treatment C, 0.00017 μM, Day 7): 67.5%
RT activity % VC (Treatment C, 0.00017 μM, Day 14): 92.9%
RT activity % VC (Treatment C, 0.00017 μM, Day 21): 110.1%
RT activity % VC (Treatment C, 0.00054 μM, Day 7): 73.6%
RT activity % VC (Treatment C, 0.00054 μM, Day 14): 92.3%
RT activity % VC (Treatment C, 0.00054 μM, Day 21): 106.2%
RT activity % VC (Treatment C, 0.00168 μM, Day 7): 45.4%
RT activity % VC (Treatment C, 0.00168 μM, Day 14): 125.4%
RT activity % VC (Treatment C, 0.00168 μM, Day 21): 119.1%
RT activity % VC (Treatment C, 0.00524 μM, Day 7): 28.4%
RT activity % VC (Treatment C, 0.00524 μM, Day 14): 74.6%
RT activity % VC (Treatment C, 0.00524 μM, Day 21): 104.7%
RT activity % VC (Treatment C, 0.01638 μM, Day 7): 22.1%
RT activity % VC (Treatment C, 0.01638 μM, Day 14): 62.9%
RT activity % VC (Treatment C, 0.01638 μM, Day 21): 119.2%
RT activity % VC (Treatment C, 0.0512 μM, Day 7): 17.0%
RT activity % VC (Treatment C, 0.0512 μM, Day 14): 70.5%
RT activity % VC (Treatment C, 0.0512 μM, Day 21): 89.2%
RT activity % VC (Treatment C, 0.16 μM, Day 7): 10.3%
RT activity % VC (Treatment C, 0.16 μM, Day 14): 38.1%
RT activity % VC (Treatment C, 0.16 μM, Day 21): 72.0%
RT activity % VC (Treatment C, 0.5 μM, Day 7): 8.9%
RT activity % VC (Treatment C, 0.5 μM, Day 14): 26.8%
RT activity % VC (Treatment C, 0.5 μM, Day 21): 90.1%
RT activity % VC (Treatment C, 5.5E-05 μM, Day 7): 88.6%
RT activity % VC (Treatment C, 5.5E-05 μM, Day 14): 109.2%
RT activity % VC (Treatment C, 5.5E-05 μM, Day 21): 198.4%
